The source of these data is patent US20170037007A1, “SUBSTITUTED N-(2-(AMINO)-2OXOETHYL)BENZAMIDE INHIBITORS OF AUTOTAXIN AND THEIR PREPARATION AND USE IN THE TREATMENT OF LPA-DEPENDENT OR LPA-MEDIATED DISEASES” (X-Rx, Inc., priority 2014, published 2017).

This test has as its target T1, Autotaxin (Homo sapiens, UniProt Q13822).
T1 construct: purchased X-Chem
The test is described as follows: Autotaxin LPC Cascade Assay. The note with it: 5 nM autotaxin, 100 μM LPC, choline oxidase/HRP/Ampliflu Red fluorescence readout; read-out: IC50 ATX activity values, IC50. It counts as biochemical. The protocol:
Autotaxin LPC Cascade Assay
HA130 and Test Compounds:
Highest final concentration is […] for HA130 (Echelon, B-0701) and 30 μM for test compounds. Prepare a 1 mM stock of HA130 and a 3 mM stock of each compound in 100% DMSO. Perform a 1:3 serial dilution in DMSO (transfer 5 μl of compound to 10 μl of DMSO). Add 240 μl of buffer to generate a top working concentration of 40 µM (HA130) and 120 µM (test compound) in 4% DMSO.
Ampliflu Red—Prepare a stock of 5 mM from 100 mM in 100% DMSO. Further dilute to a working concentration of 400 μM in buffer (8% DMSO).
Together with compound this yields a 2% DMSO final concentration.
Choline Oxidase/HRP—0.8 U/ml CO and 8 U/ml HRP.
Add 5 μl of ATX and 5 μl of compound in a 384 well plate (Corning 3676). Incubate for 10 mins at RT. Add 5 μl of LPC and incubate for 1 hr on the plate shaker. Prepare the CO/HRP and AR prior to use. Add 2.5 μl of CO/HRP and follow with 2.5 μl AR. Note order of addition, CO/HRP mix before AR. Read fluorescence intensity (λex/λem: 530/590 nm) kinetically for 30 min at RT on the Tecan M1000.
By IC50 is commonly meant the concentration that gives 50% inhibition. As to `CC1(Nc2ccc(S(C)(=O)=O)cc2)CCN(C(=O)[C@H](NC(=O)c2cc(OC(F)(F)F)ccc2F)C2CC2)CC1` [Example 13, (R)—N-(1-Cyclopropyl-2-(4-methyl-4-((4-(methylsulfonyl)phenyl)amino)piperidin-1-yl)-2-oxoethyl)-2-fluoro-5-(trifluoromethoxy)benzamide], the half-inhibitory concentration (IC50) was in the range of 100 to 500 nM. Turning to `CNC(=O)C1(Oc2ccccc2)CCN(C(=O)[C@H](NC(=O)c2cccc(C)c2F)C(C)C)CC1` [Example 14, (R)-1-(2-(2-Fluoro-3-methylbenzamido)-3-methylbutanoyl)-N-methyl-4-phenoxypiperidine-4-carboxamide], the IC50 was 500 to 5000 nM.

Consider `CCc1ccc(F)c(C(=O)N[C@@H](C(=O)N2CCC(Oc3ccc(S(C)(=O)=O)cc3)(C(=O)NC)CC2)C(C)C)c1` [Example 15, (R)-1-(2-(5-Ethyl-2-fluorobenzamido)-3-methylbutanoyl)-N-methyl-4-(4-(methylsulfonyl)phenoxy)piperidine-4-carboxamide], for which the IC50 lay in the range of 500 to 5000 nM. In the case of `CCc1ccc(F)c(C(=O)N[C@@H](C(=O)N2CCC(Oc3ccc(S(C)(=O)=O)cc3)(C(=O)N(C)C)CC2)C(C)C)c1` [Example 16, (R)-1-(2-(5-Ethyl-2-fluorobenzamido)-3-methylbutanoyl)-N,N-dimethyl-4-(4-(methylsulfonyl)phenoxy)piperidine-4-carboxamide], the IC50 was in the range of 500 to 5000 nM. Take `COCC1(Nc2ccccc2)CCN(C(=O)[C@H](NC(=O)c2cccc(C)c2)C(C)C)CC1` [Example 17, (R)—N-(1-(4-(Methoxymethyl)-4-(phenylamino)piperidin-1-yl)-3-methyl-1-oxobutan-2-yl)-3-methylbenzamide]: the IC50 is not below 10000 nM. As to `CCc1ccc(F)c(C(=O)N[C@@H](C(=O)N2CCC(C#N)(Nc3ccc(S(C)(=O)=O)cc3)CC2)C(C)C)c1` [Example 18, (R)—N-(1-(4-Cyano-4-(4-(methylsulfonyl)phenylamino)piperidin-1-yl)-3-methyl-1-oxobutan-2-yl)-5-ethyl-2-fluorobenzamide], the IC50 lay within 500 to 5000 nM.

As for `CC(=O)Nc1ccc(N(C)C2(C)CCN(C(=O)[C@H](NC(=O)c3cc(C(F)(F)F)ccc3F)C(C)C)CC2)cc1` [Example 19, (R)—N-(1-(4-(4-Acetamidophenyl(methyl)amino)-4-methylpiperidin-1-yl)-3-methyl-1-oxobutan-2-yl)-2-fluoro-5-(trifluoromethyl)benzamide], the IC50 lay within 100 to 500 nM. For `Cc1cccc(C(=O)N[C@@H](C(=O)N2CCC(C)(N(C)c3ccccc3)CC2)C(C)C)c1` [Example 20, (R)-3-Methyl-N-(3-methyl-1-(4-methyl-4-(methyl(phenyl)amino)piperidin-1-yl)-1-oxobutan-2-yl)benzamide], the IC50 fell in the range of 500 to 5000 nM. Take `CC(C)[C@@H](NC(=O)c1cc(C(F)(F)F)ccc1F)C(=O)N1CCC(C)(Nc2ccc(C(=O)O)cc2)CC1` [Example 21, (R)-4-(1-(2-(2-Fluoro-5-(trifluoromethyl)benzamido)-3-methylbutanoyl)-4-methylpiperidin-4-ylamino)benzoic acid]: the IC50 lay in the range of 100 to 500 nM. As for `CC(C)[C@@H](NC(=O)c1cc(C(F)(F)F)ccc1F)C(=O)N1CCC(Nc2ccc(S(C)(=O)=O)cc2)CC1` [Example 22, (R)-2-Fluoro-N-(3-methyl-1-(4-(4-(methylsulfonyl)phenylamino)piperidin-1-yl)-1-oxobutan-2-yl)-5-(trifluoromethyl)benzamide], the IC50 was not below 10000 nM. As for `CC(C)[C@@H](NC(=O)c1cc(C(F)(F)F)ccc1F)C(=O)N1CCC(Nc2ccc3[nH]ncc3c2)CC1` [Example 23, (R)—N-(1-(4-(1H-Indazol-5-ylamino)piperidin-1-yl)-3-methyl-1-oxobutan-2-yl)-2-fluoro-5-(trifluoromethyl)benzamide], the concentration for half-maximal inhibition (IC50) was 5000 to 10000 nM. `CC(C)[C@@H](NC(=O)c1cc(C(F)(F)F)ccc1F)C(=O)N1CCC(Nc2ccc(C(=O)O)cc2)CC1` [Example 24, (R)-4-(1-(2-(2-Fluoro-5-(trifluoromethyl)benzamido)-3-methylbutanoyl)piperidin-4-ylamino)benzoic acid]: the IC50 was not below 10000 nM. As for `CC1CCc2cc(F)c(C(=O)N[C@@H](C(=O)N3CCC(C)(Nc4ccc(S(C)(=O)=O)cc4)CC3)C(C)C)cc21` (stereo partly drawn) [Example 25, 6-Fluoro-3-methyl-N—((R)-3-methyl-1-(4-methyl-4-(4-(methylsulfonyl)phenylamino)piperidin-1-yl)-1-oxobutan-2-yl)-2,3-dihydro-1H-indene-5-carboxamide], the IC50 fell in the range of 100 to 500 nM. Consider `CCc1ccc(F)c(C(=O)N[C@@H](C(=O)N2CCC(C)(Nc3ccc(CS(C)(=O)=O)cc3)CC2)C(C)C)c1` [Example 26, (R)-5-Ethyl-2-fluoro-N-(3-methyl-1-(4-methyl-4-(4-(methylsulfonylmethyl)phenylamino)piperidin-1-yl)-1-oxobutan-2-yl)benzamide], for which the concentration for half-maximal inhibition (IC50) was in the range of 10 to 100 nM.

On to `CC(C)[C@@H](NC(=O)c1cc(C(F)(F)F)ccc1F)C(=O)N1CCC(C)(Nc2ccc(S(C)(=O)=O)cc2)CC1` [Example 27, (R)-2-Fluoro-N-(3-methyl-1-(4-methyl-4-(4-(methylsulfonyl)phenylamino)piperidin-1-yl)-1-oxobutan-2-yl)-5-(trifluoromethyl)benzamide], for which the IC50 was 100 to 500 nM. Turning to `CC(C)[C@@H](NC(=O)c1cc(OC(F)F)ccc1F)C(=O)N1CCC(C)(Nc2ccc(S(C)(=O)=O)cc2)CC1` [Example 28, (R)-5-(Difluoromethoxy)-2-fluoro-N-(3-methyl-1-(4-methyl-4-(4-(methylsulfonyl)phenylamino)piperidin-1-yl)-1-oxobutan-2-yl)benzamide], the IC50 was in the range of 100 to 500 nM.

Consider `CC(C)[C@@H](NC(=O)c1cc(C(C)(C)C)ccc1F)C(=O)N1CCC(C)(Nc2ccc(S(C)(=O)=O)cc2)CC1` [Example 29, (R)-5-tert-Butyl-2-fluoro-N-(3-methyl-1-(4-methyl-4-(4-(methylsulfonyl)phenylamino)piperidin-1-yl)-1-oxobutan-2-yl)benzamide], for which the IC50 is 500 to 5000 nM.

For `CC(C)[C@@H](NC(=O)c1cc(Cc2ccccc2)ccc1F)C(=O)N1CCC(C)(Nc2ccc(S(C)(=O)=O)cc2)CC1` [Example 30, (R)-5-Benzyl-2-fluoro-N-(3-methyl-1-(4-methyl-4-(4-(methylsulfonyl)phenylamino)piperidin-1-yl)-1-oxobutan-2-yl)benzamide], the concentration for half-maximal inhibition (IC50) was 500 to 5000 nM. The result for `CC(C)Cc1ccc(F)c(C(=O)N[C@@H](C(=O)N2CCC(C)(Nc3ccc(S(C)(=O)=O)cc3)CC2)C(C)C)c1` [Example 31, (R)-2-Fluoro-5-isobutyl-N-(3-methyl-1-(4-methyl-4-(4-(methylsulfonyl)phenylamino)piperidin-1-yl)-1-oxobutan-2-yl)benzamide] reads 10 to 100 nM; that for `CC(C)[C@@H](NC(=O)c1cc(-c2ccccc2)ccc1F)C(=O)N1CCC(C)(Nc2ccc(S(C)(=O)=O)cc2)CC1` [Example 32, (R)-4-Fluoro-N-(3-methyl-1-(4-methyl-4-(4-(methylsulfonyl)phenylamino)piperidin-1-yl)-1-oxobutan-2-yl)biphenyl-3-carboxamide], 100 to 500 nM. For the molecule `CC(C)[C@@H](NC(=O)c1cc(C2CC2)ccc1F)C(=O)N1CCC(C)(Nc2ccc(S(C)(=O)=O)cc2)CC1` [Example 33, (R)-5-Cyclopropyl-2-fluoro-N-(3-methyl-1-(4-methyl-4-(4-(methylsulfonyl)phenylamino)piperidin-1-yl)-1-oxobutan-2-yl)benzamide], the concentration for half-maximal inhibition (IC50) was 100 to 500 nM.
